Assay results: patent US20120115724A1, “METHOD OF CONTROLLING UNDESIRED VEGETATION” (SYNGENTA CROP PROTECTION LLC, priority 2009, published 2012)

Tests used:
Assay type in all cases: in vivo
[1] = tested on: Alopecurus myosuroides (ALOMY); assay: Pre-emergence biological efficacy (Example 13); conditions: Alopecurus myosuroides, 312 h; pre-emergence, 1,000 g/ha, after 13 days; read-out: Percentage damage ALOMY
In short: (§1)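 Compound formulated in acetone/water (50:50) containing 0.5% Tween 20, diluted into an aqueous spray and applied at 250 or 1000 g/ha a day after sowing. Evaluation at 13 days: 100 = total damage, 0 = no damage.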

[2] = tested on: Amaranthus retroflexus (AMARE); assay: Pre-emergence biological efficacy (Example 13); conditions: Amaranthus retroflexus, 312 h; pre-emergence, 1,000 g/ha, after 13 days; read-out: Percentage damage AMARE
In short: as §1

[3] = tested on: Echinochloa crus-galli (ECHCG); assay: Pre-emergence biological efficacy (Example 13); conditions: Echinochloa crus-galli, 312 h; pre-emergence, 1,000 g/ha, after 13 days; read-out: Percentage damage ECHCG
In short: as §1

[4] = tested on: Ipomea hederaceae (IPOHE); assay: Pre-emergence biological efficacy (Example 13); conditions: Ipomoea hederacea, 312 h; pre-emergence, 1,000 g/ha, after 13 days; read-out: Percentage damage IPOHE
In short: as §1

Setaria faberi (SETFA) [5] = assay: Pre-emergence biological efficacy (Example 13); conditions: Setaria faberi, 312 h; pre-emergence, 1,000 g/ha, after 13 days; read-out: Percentage damage SETFA
In short: as §1

Solanum nigrum (SOLNI) [6] = assay: Pre-emergence biological efficacy (Example 13); conditions: Solanum nigrum, 312 h; pre-emergence, 1,000 g/ha, after 13 days; read-out: Percentage damage SOLNI
In short: as §1

[7] = tested on: Alopecurus myosuroides (ALOMY); assay: Post-emergence biological efficacy (Example 14); conditions: Alopecurus myosuroides, 312 h; post-emergence, 1,000 g/ha, after 13 days; read-out: Percentage damage ALOMY
In short: (§2)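 Herbicidal effect was assessed as percent plant damage 13 days after a foliar application of 250 or 1000 g/ha to 8-day-old glasshouse-grown plants, with the compound formulated in 50:50 acetone/water containing 0.5% Tween 20.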

[8] = tested on: Amaranthus retroflexus (AMARE); assay: Post-emergence biological efficacy (Example 14); conditions: Amaranthus retroflexus, 312 h; post-emergence, 1,000 g/ha, after 13 days; read-out: Percentage damage AMARE
In short: as §2

[9] = tested on: Echinochloa crus-galli (ECHCG); assay: Post-emergence biological efficacy (Example 14); conditions: Echinochloa crus-galli, 312 h; post-emergence, 1,000 g/ha, after 13 days; read-out: Percentage damage ECHCG
In short: as §2

[10] = tested on: Ipomea hederaceae (IPOHE); assay: Post-emergence biological efficacy (Example 14); conditions: Ipomoea hederacea, 312 h; post-emergence, 1,000 g/ha, after 13 days; read-out: Percentage damage IPOHE
In short: as §2

Setaria faberi (SETFA) [11] = assay: Post-emergence biological efficacy (Example 14); conditions: Setaria faberi, 312 h; post-emergence, 1,000 g/ha, after 13 days; read-out: Percentage damage SETFA
In short: as §2

Solanum nigrum (SOLNI) [12] = assay: Post-emergence biological efficacy (Example 14); conditions: Solanum nigrum, 312 h; post-emergence, 1,000 g/ha, after 13 days; read-out: Percentage damage SOLNI
In short: as §2

[13] = tested on: ABUTH Abutilon theophrasti; assay: Post-emergence crop and weed test (Example 15); conditions: 360 h, 30 g/ha, after 15 days, read-out: Percentage damage ABUTH
Experimental: (§3) Seeds of crop and representative weed species were sown in standard soil in pots. After cultivation for 14 days under controlled conditions in a glasshouse (at 22/16° C., day/night; 16 hours light; 65% humidity), the plants were sprayed. The spray solution was prepared by dissolving the technical active ingredient in acetone containing 10.56 wt % Emulsogen EL, 42.22 wt % N-methylpyrrolidone and 2.22 wt % DPG-monoethyl ether to give a 5% stock solution. This was then diluted with water containing 0.2% (v/v) of the adjuvant X-77 to give the desired treatment concentration.
(§4) The test plants were then grown on under controlled conditions in a glasshouse (at 22/16° C., day/night; 16 hours light; 65% humidity) and watered twice daily. After 15 days the test was evaluated (100 =total damage to plant; 0 =no damage to plant).

[14] = tested on: AMARE Amaranthus retroflexus; assay: Post-emergence crop and weed test (Example 15); conditions: 360 h, 30 g/ha, after 15 days, read-out: Percentage damage AMARE
Experimental: as §3, §4

CHEAL Chenopodium album = assay: Post-emergence crop and weed test (Example 15); conditions: 360 h, 30 g/ha, after 15 days, read-out: Percentage damage CHEAL
Experimental: as §3, §4

[15] = tested on: EPHHL Euphorbia heterophylla; assay: Post-emergence crop and weed test (Example 15); conditions: 360 h, 30 g/ha, after 15 days, read-out: Percentage damage EPHHL
Experimental: as §3, §4

GALAP Galium aparine = assay: Post-emergence crop and weed test (Example 15); conditions: 360 h, 30 g/ha, after 15 days, read-out: Percentage damage GALAP
Experimental: as §3, §4

GLXMA Soybean = assay: Post-emergence crop and weed test (Example 15); conditions: Glycine max, 360 h, 30 g/ha, after 15 days, read-out: Percentage damage GLXMA
Experimental: as §3, §4

IPOHE Ipomoea hederacea = assay: Post-emergence crop and weed test (Example 15); conditions: 360 h, 30 g/ha, after 15 days, read-out: Percentage damage IPOHE
Experimental: as §3, §4

KCHSC Kochia scoparia = assay: Post-emergence crop and weed test (Example 15); conditions: Bassia scoparia, 360 h, 30 g/ha, after 15 days, read-out: Percentage damage KCHSC
Experimental: as §3, §4

[16] = tested on: POLCO Polygonum convolvulus; assay: Post-emergence crop and weed test (Example 15); conditions: Fallopia convolvulus, 360 h, 30 g/ha, after 15 days, read-out: Percentage damage POLCO
Experimental: as §3, §4

SIDSP Sida spinosa = assay: Post-emergence crop and weed test (Example 15); conditions: 360 h, 30 g/ha, after 15 days, read-out: Percentage damage SIDSP
Experimental: as §3, §4

SINAR Sinapis arvensis = assay: Post-emergence crop and weed test (Example 15); conditions: Mutarda arvensis, 360 h, 30 g/ha, after 15 days, read-out: Percentage damage SINAR
Experimental: as §3, §4

VERPE Veronica persica = assay: Post-emergence crop and weed test (Example 15); conditions: 360 h, 30 g/ha, after 15 days, read-out: Percentage damage VERPE
Experimental: as §3, §4

[17] = tested on: XANST Xanthium strumarium; assay: Post-emergence crop and weed test (Example 15); conditions: 360 h, 30 g/ha, after 15 days, read-out: Percentage damage XANST
Experimental: as §3, §4

SMILES: C=Cc1c(NCc2ccco2)nc(-c2ccc(Cl)cc2)nc1C(=O)OC [Compound 7, 2-(4-Chlorophenyl)-5-ethenyl-4-(furan-2-ylmethylamino)-6-methoxycarbonyl-pyrimi-dine]
- pest or weed control at 1000 g/ha [1]: 50%
- pest or weed control at 1000 g/ha [2]: 100%
- pest or weed control at 1000 g/ha [3]: 20%
- pest or weed control at 1000 g/ha [4]: 40%
- pest or weed control at 1000 g/ha (Setaria faberi (SETFA) [5]): 10%
- pest or weed control at 1000 g/ha (Solanum nigrum (SOLNI) [6]): 20%
- pest or weed control at 1000 g/ha [7]: 30%
- pest or weed control at 1000 g/ha [8]: 100%
- pest or weed control at 1000 g/ha [9]: 40%
- pest or weed control at 1000 g/ha [10]: 80%
- pest or weed control at 1000 g/ha (Setaria faberi (SETFA) [11]): 0%
- pest or weed control at 1000 g/ha (Solanum nigrum (SOLNI) [12]): 90%
- pest or weed control at 30 g/ha [13]: 70%
- pest or weed control at 30 g/ha [14]: 50%
- pest or weed control at 30 g/ha (CHEAL Chenopodium album): 20%
- pest or weed control at 30 g/ha [15]: 0%
- pest or weed control at 30 g/ha (GALAP Galium aparine): 60%
- plant injury at 30 g/ha (GLXMA Soybean): 0%
- pest or weed control at 30 g/ha (IPOHE Ipomoea hederacea): 70%
- pest or weed control at 30 g/ha (KCHSC Kochia scoparia): 40%
- pest or weed control at 30 g/ha [16]: 40%
- pest or weed control at 30 g/ha (SIDSP Sida spinosa): 0%
- pest or weed control at 30 g/ha (SINAR Sinapis arvensis): 60%
- pest or weed control at 30 g/ha (VERPE Veronica persica): 80%
- pest or weed control at 30 g/ha [17]: 50%
